Entries after “also recorded” stand apart in the source; their conditions may differ.
Assays:
[1] = Parallel artificial membrane permeability assay (PAMPA); assay type: in vitro ADME; details: for Permeability Classification (passive transport): BCS classification
Method: Samples were tested in triplicates in three separate experiments.

human NNMT (mt-hNNMT) = molecular target: T1, human NNMT (mt-hNNMT) (Homo sapiens, UniProt P40261, E101A/E103A/K100A); assay: NNMT activity assay (HPLC-UV detection of MNA), NNMT IC50 curves; details: for IC50: NNMT Inhibition IC50, mean ± SD of duplicate or triplicate measurements, NI = no observable inhibition
T1 sequence (P40261 1-261 K100A/E101A/E103A limits assumed): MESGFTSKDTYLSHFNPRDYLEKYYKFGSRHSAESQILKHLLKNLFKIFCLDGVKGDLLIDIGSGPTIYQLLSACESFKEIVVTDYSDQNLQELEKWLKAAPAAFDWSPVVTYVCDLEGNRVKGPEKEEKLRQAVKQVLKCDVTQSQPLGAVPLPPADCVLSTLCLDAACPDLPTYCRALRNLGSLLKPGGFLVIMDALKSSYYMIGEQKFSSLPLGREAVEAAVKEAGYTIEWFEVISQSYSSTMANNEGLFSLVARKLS

[2] = Bi-directional permeability assay with Caco-2 cells; details: human
Caco-2 cells = assay: as above; details: Caco-2; listed as 7-amino-1MQ
[3] = tested on: 3T3-L1 pre-adipocytes cells; assay: MTT cell viability assay; assay type: cell-based; details: 3T3-L1 pre-adipocytes, 24 h
Method: Cells were treated for 24 h with 0.1-600 μM NNMT inhibitors in cell culture media. A 24 h time point was chosen based on a previous report of using this time period for transfecting or treating 3T3-L1 cells with NNMT anti-sense oligonucleotides or a small molecule NNMT product inhibitor (1-MNA), respectively, for phenotypic measures. MTT (3-(4,5-dimethylthiazol-2-yl)-2,5-diphenyltetrazolium bromide) (ATCC; Manassas, Va., USA) was added to each well and assayed according to the manufacturer's instructions. Absorbance corresponding to the amount of formazan dye produced by treated cells was normalized to that produced by control (untreated) cells to calculate % viable cells in the treated samples.

[4] = 400 μM in PBS, 4 h, room temperature

Molecule | IC50 (human NNMT (mt-hNNMT)) | further results
1-methylnicotinamide [reference compound] |  | Flux [1, 4]: 0 cm/s; Permeability Classification (passive transport) [1]: No permeability; Permeability Classification (passive transport) ([1]; listed as 1-MNA): no passive permeability
C[n+]1cccc2ccccc21 [1a, 1-methylquinolinium] | 12.1 ± 3.1 µM | Flux [1, 4]: 0 cm/s; Permeability Classification (passive transport) [1]: No permeability; Permeability Classification (passive transport) ([1]; listed as 1-MQ): lacked passive diffusion properties
Cc1ccc2ccccc2[n+]1C [1b] | 21 ± 2.1 µM | 
C[n+]1c(N)ccc2ccccc21.[I-] [1c, 2-amino-1-methylquinolin-1-ium Iodide] | 6.3 ± 1.1 µM | inhibitory activity against NNMT (in words) (human NNMT (mt-hNNMT)): exhibited inhibitory activity
C[n+]1cc(N)cc2ccccc21 [1d] | 2.9 µM | 
C[n+]1cc(C#N)cc2ccccc21 [1e] | 23.8 ± 5.6 µM | 
CNc1cc2ccccc2[n+](C)c1.[I-] [1f, 1-methyl-3-(methylamino)quinolin-1-ium Iodide] | 4 ± 1.5 µM | inhibitory activity against NNMT (in words) (human NNMT (mt-hNNMT)): exhibited inhibitory activity
C[n+]1cc(Nc2ccccc2)cc2ccccc21 [1g] | > 1000 µM | 
C[n+]1cccc2cc(N)ccc21.[I-] [1m, 6-amino-1-methylquinolin-1-ium Iodide] | 34.4 ± 9.6 µM | inhibitory activity against NNMT (in words) (human NNMT (mt-hNNMT)): exhibited inhibitory activity
C[n+]1cccc2ccc(N)cc21 [1o] | 2.6 ± 0.5 µM | efflux ratio at 2 h, 10 μM ([2]; Caco-2): 1.52; Papp A→B at 2 h, 10 μM ([2]; Caco-2, pH 7.4): 26 ×10⁻⁶ cm/s; Papp B→A at 2 h, 10 μM ([2]; Caco-2, pH 7.4): 39.6 ×10⁻⁶ cm/s; Classification (active transport / efflux) (Caco-2 cells): no detectable efflux; also recorded: High permeability; cell viability ([3]; 10 μM): did not impact cell viability; cytotoxicity ([3]; 600 μM (highest concentration tested)): ~40%; cytotoxicity relative to untreated cells ([3]; 100-300 μM): modest cytotoxicity; Papp at 4 h, 400 μM ([1]; 400 μM in PBS, 4 h, room temperature, read-out: Flux): 2.05 ×10⁻⁶ cm/s; Permeability Classification (passive transport) ([1]; listed as 7-amino-1MQ): high passive and active transport; also recorded: High permeability
O=C(C[n+]1cccc2ccccc21)c1ccccc1 [1u] | > 1000 µM | 

Now from value to molecule, other results behind:

IC50 (human NNMT (mt-hNNMT)) | Molecule | further results
7.5 ± 2.2 µM | Cc1cc[n+](C)c2ccccc12 [1h] | 
11.4 ± 2.1 µM | C[n+]1ccc(N)c2ccccc21 [1i] | 
5.7 ± 1.8 µM | C[n+]1cccc2cc(F)ccc21 [1k] | 
120 ± 50.1 µM | COc1ccc2c(ccc[n+]2C)c1 [1n] | 
709 ± 179 µM | C[n+]1cccc2ccc(O)cc21 [1p] | 
95.2 ± 21 µM | C[n+]1cccc2cccc(O)c21 [1r] | 
27.1 ± 5.4 µM | CC[n+]1cccc2ccccc21 [1s] | 
> 1000 µM | COCC[n+]1cccc2ccccc21 [1t] | 

— patent US11401243B2, “Quinoline derived small molecule inhibitors of nicotinamide N-methyltransferase (NNMT) and uses thereof” (priority 2017, dated 2022)
